Laboratory results as given in patent US12233143B2, “Topical compositions containing rose oil and cannabidiol and methods of making and using the same” (priority 2019, dated 2025).
Several values for one entry are separate records, joined by “and”; a condition that tells them apart may be missing. Identical values can stand only once.

How the values were obtained:
[1] = test system: PMA-induced IL-8 release by NCTC-2544 keratinocytes; test: PMA-induced IL-8 release, ELISA; assay type: cell-based, human; settings: Dexamethasone 10^−7 M, PMA 0.1 μg/ml
Experimental: (§1) The effect of S-863d and S-863g on inflammation in keratinocytes was evaluated by measuring phorbol myristate acetate (PMA)-induced interleukin-8 (IL-8) and prostaglandin E2 (PGE2) release from a NCTC-2544 keratinocyte cell line by enzyme-linked immunosorbent assay (ELISA).
(§2) Materials: A NCTC-2544 human keratinocyte cell line (NCTC-2544 cells) was cultured at 37° C. in the presence of 5% CO2. The NCTC-2544 cells were grown in Dulbecco's Modified Eagle Medium (DMEM) supplemented with L-glutamine (2 mM), penicillin (50 U/mL), Streptomycin (50 μg/mL), and fetal calf serum (FCS) (10%). S-863d contained 3% phospholipids, 54% glycerin, 10% caprylic/capric triglyceride, 1% cannabidiol, 2% AlpineRoseActive™, 1% glycoin, 0.1% tocopherol, and water (ad 100%). The particle size (zAve) of S-863d was 90±50 nm, and the pH of S-863d was between 4.5 and 7.5. The total germ count of S-863d was <100 CFU/g. S-863d was stored at 4° C. in a dark space in a closed container. S-863g (negative control) contained 1% CBD in DMSO. S-863 d was evaluated at 0.004%, 0.02%, and 0.1%. S-863g was evaluated at 0.00044%, 0.0013%, and 0.004%.
(§3) Methods: The keratinocytes were seeded in 96-well plates and cultured for 24 hours in culture medium. The medium was then replaced by culture medium containing or not (control) the test compounds or the reference compound (dexamethasone at 10′ M for IL-8 assay and indomethacin at 10′ M for PGE2 assay) and the cells were pre-incubated for 24 hours. After pre-incubation, the medium was replaced by culture medium containing or not (control) the test compounds or the reference compounds and the inflammatory inducer phorbol myristate acetate (PMA) at 0.1 μg/mL was added. The cells were further incubated for 24 hours. A control without inducer was performed in parallel (non-stimulated control condition). All experimental conditions were performed in triplicate. IL-8 and PGE2 released in the culture supernatants were measured by ELISA.
(§4) Inhibition of IL-8 and PMA-induced PGE2 release was measured using the following formula: […]

[2] = test system: PMA-induced PGE2 release by NCTC-2544 keratinocytes; test: PMA-induced PGE2 release, ELISA; assay type: cell-based, human
Experimental: as §1, §2, §3, §4

[3] = test system: human keratinocyte stem cells (KSC); test: Migration of keratinocyte stem cells, scratch wound gap recovery; assay type: cell-based; settings: 24 hours of incubation
Experimental: The effect of S-863d and S-863g on wound healing in keratinocytes was evaluated. The migration of human keratinocyte stem cells (KSC) was evaluated by measuring wound recovery using imaging on a system whereby a “wound gap” was created by scratching.
Materials: Human keratinocyte cells (KSC) were used at the third passage and cultured at 37° C. in the presence of 5% CO2. The NHEK cells were grown in keratinocyte serum free media supplemented with gentamycin (25 μg/mL), pituitary extract (PE) (25 μg/mL), and epidermal growth factor (EGF) (0.25 ng/ml). S-863d contained 3% phospholipids, 54% glycerin, 10% caprylic/capric triglyceride, 1% cannabidiol, 2% AlpineRoseActive™, 1% glycoin, 0.1% tocopherol, and water (ad 100%). The particle size (zAve) of S-863d was 90±50 nm, and the pH of S-863d was between 4.5 and 7.5. The total germ count of S-863d was <100 CFU/g. S-863d was stored at 4° C. in a dark space in a closed container. S-863g (negative control) contained 1% CBD in DMSO. S-863d was evaluated at 0.004%, 0.02%, and 0.1%. S-863g was evaluated at 0.00044%, 0.0013%, and 0.004%.
Methods: The KSCs were seeded in 24-well plates (previously coated with a collagen I solution) and cultured in culture medium for 24 hours. The medium was then replaced by assay medium and an artificial “wound gap” was generated by scratching the cell monolayers. The KSCs were labeled with calcien-AM. After 30 minutes of incubation (TO), the medium was replaced by assay medium containing or not (control condition) the test compounds or the reference compound (e.g. epidermal growth factor (EGF) at 10 ng/mL) and the cells were further incubated for 24 hours. The labeling with calcein-AM was renewed before the final timepoint. All experimental conditions were performed in triplicate. Cell migration into the migration zone was observed after 0 (TO) and 24 hours of incubation using a high-resolution imaging system INCell Analyzer′ 2200 (GE Healthcare) automated microscope and the artificial wound area was analyzed using ImageJ software. One picture was taken per well (objective lens×4). The artificial wound area was measured after 24 hours of incubation and compared to the area measured at TO in order to visualize and quantify the wound recovery. The effect of compounds on cell migration was compared to the untreated control.
The migration area (percentage of wound recovery) was calculated using the following formula: […]

C[C@@H]1C[C@H]2[C@@H]3CCC4=CC(=O)C=C[C@]4(C)[C@@]3(F)[C@@H](O)C[C@]2(C)[C@@]1(O)C(=O)CO [Dexamethasone, dexamethasone]
IL-8 % Stimulated control [1]: 18%
IL-8 Mean [1]: 22112 pg/mL
IL-8 (pg/ml) dilution factor adjusted ([1]; single replicate): 18117 pg/mL and 23002 pg/mL and 25217 pg/mL
inhibition at 0.1 µM ([1]; Homo sapiens, NCTC-2544, read-out: IL-8 % Relative inhibition): 82%

COc1ccc2c(c1)c(CC(=O)O)c(C)n2C(=O)c1ccc(Cl)cc1 [Indomethacin, indomethacin]
inhibition at 1 µM ([2]; Homo sapiens, NCTC-2544, read-out: PGE2 % Relative inhibition): > 100%
PGE2 Mean ([2]; Indomethacin 10^−6 M, PMA 0.1 μg/ml, non-diluted samples): <39 pg/mL
PGE2 (pg/ml) dilution factor adjusted ([2]; Indomethacin 10^−6 M, PMA 0.1 μg/ml, non-diluted samples, single replicate): <39 pg/mL
PGE2 % Stimulated control ([2]; Indomethacin 10^−6 M, PMA 0.1 μg/ml, extrapolated from values below detection limit): <0%
Effect on PMA-induced PGE2 release (in words) ([2]; NCTC-2544 cells, PMA 0.1 μg/mL): completely inhibited

epidermal growth factor [EGF]
Effect on KSC migration / wound recovery (in words) ([3]; all tested concentrations): marked stimulation
Wound Recovery Mean ([3]; EGF 10 ng/ml): 73%
Wound recovery % Control ([3]; EGF 10 ng/ml): 183 % Control
24 Hours Wound area ([3]; EGF 10 ng/ml, single image): 0.46 mm^2 and 0.50 mm^2 and 0.76 mm^2
Wound Recovery ([3]; EGF 10 ng/ml, single image): 80% and 75% and 64%
